Measurements reported in patent publication US20260217735A1, “HETEROCYCLES AND USES THEREOF” (Kumquat Biosciences Inc., priority 2023, published 2026).

Tests used:
Assay type in all cases: biochemical
KRAS G12D = molecular target: T1, KRAS G12D (Homo sapiens, UniProt P01116, G12D); test: HTRF assay, KRAS G12D interaction with SOS1; details: bins <500 nM / 500 nM to 1000 nM, read-out: Inhibition of KRAS G12D (IC50)
T1 construct: made in house; host or cells: E. coli, e.g. BL21 (DE3)
Description: (§1) This assay can be also used to assess a selective inhibition or reduction of signaling output of a mutant Ras protein relative to a wildtype, or relative to a different mutant Ras protein. For example, the equilibrium interaction of wildtype KRAS or K-Ras mutant (e.g., wildtype or a mutant thereof) with SOS1 (e.g., hSOS1) can be assessed as a proxy or an indication for the ability of a subject compound to bind and inhibit Ras protein. The HTRF assay detects from (i) a fluorescence resonance energy transfer (FRET) donor (e.g., antiGST-Europium) that is bound to GST-tagged K-Ras mutant to (ii) a FRET acceptor (e.g., anti-6His-XL665) bound to a His-tagged hSOSL1.
(§2) The assay buffer can contain ~5 mM HEPES pH 7.4, ~150 mM NaCl, ~1 mM DTT, 0.05% BSA and 0.0025% (v/v) Igepal. A Ras working solution is prepared in an assay buffer containing typically a suitable amount of the protein construct (e.g., GST-tagged K-Ras mutant) and the FRET donor (e.g., antiGST-Eu(K) from Cisbio, France). A SOS1 working solution is prepared in an assay buffer containing suitable amount of the protein construct (e.g., His-hSOS1) and the FRET acceptor (e.g., anti-6His-XL665 from Cisbio, France). A suitable amount of the protein construct will depend on the range of activity or range of IC50 values being detected or under investigation. For detecting an IC50 within a range of 500 nM, the protein constructs of the same range of molarity can be utilized.
(§3) A fixed volume of DMSO with or without test compound is transferred into a 384-well plate. Ras working solution is added to all wells of the test plate. SOS1 working solution is added to all wells except for those that are subsequently filled with inhibitor control solution. Upon incubation for about 10 minutes or longer, the fluorescence is measured with a M1000Pro plate reader (Tecan) using HTRF detection (excitation 337 nm, emission 1: 620 nm, emission 2: 665 nm). Compounds are tested in duplicate at different concentrations (for example, 10 μM, 2.5 μM, 0.63 μM, 0.16 μM, 0.04 μM, 0.01 μM test compound). The ratiometric data (i.e., emission 2 divided by emission 1) is used to calculate IC50 values against Ras using GraphPad Prism (GraphPad software). Signaling output measured in terms of IC50 values can be obtained and a ratio of IC50 against one mutant relative to another mutant can be calculated. For instance, a selective reduction of K-Ras G12S signaling output can be evidenced by a ratio greater than one. In particular, a selective reduction of K-Ras G12S signaling relative to K-Ras WT signaling is evidenced if the ratio of IC50 (against K-Ras WT) to IC50 (against K-Ras G12S) is greater than 1.

KRAS WT = molecular target: T2, KRAS WT (Homo sapiens, UniProt P01116); test: HTRF assay, wildtype KRAS interaction with SOS1; details: bins <500 nM / 500 nM to 1000 nM, read-out: Inhibition of KRAS WT (IC50)
T2 construct: made in house; host or cells: E. coli, e.g. BL21 (DE3)
T2 sequence (P01116 1-188 isoform P01116-2): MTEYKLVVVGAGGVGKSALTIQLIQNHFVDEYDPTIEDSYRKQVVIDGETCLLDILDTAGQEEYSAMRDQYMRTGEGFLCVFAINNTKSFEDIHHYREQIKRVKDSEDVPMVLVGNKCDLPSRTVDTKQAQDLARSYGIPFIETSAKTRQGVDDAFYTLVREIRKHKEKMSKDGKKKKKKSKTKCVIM
Description: as §1, §2, §3

KRAS G12V = molecular target: T3, KRAS G12V (Homo sapiens, UniProt P01116, G12V); test: HTRF assay, KRAS G12V interaction with SOS1; details: bins <500 nM / 500 nM to 1000 nM, read-out: Inhibition of KRAS G12V (IC50)
T3 construct: made in house; host or cells: E. coli, e.g. BL21 (DE3)
T3 sequence (P01116 1-188 isoform P01116-2 G12V): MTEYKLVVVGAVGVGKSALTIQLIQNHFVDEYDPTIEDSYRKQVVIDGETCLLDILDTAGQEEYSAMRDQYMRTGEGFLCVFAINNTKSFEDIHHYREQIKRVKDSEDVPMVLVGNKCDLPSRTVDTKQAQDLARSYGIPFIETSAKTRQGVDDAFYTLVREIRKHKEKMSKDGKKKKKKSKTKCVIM
Description: as §1, §2, §3

KRAS G12S = molecular target: T4, KRAS G12S (Homo sapiens, UniProt P01116, G12S); test: HTRF assay, KRAS G12S interaction with SOS1; details: bins <500 nM / 500 nM to 1000 nM, read-out: Inhibition of KRAS G12S (IC50)
T4 construct: made in house; host or cells: E. coli, e.g. BL21 (DE3)
T4 sequence (P01116 1-188 isoform P01116-2 G12S): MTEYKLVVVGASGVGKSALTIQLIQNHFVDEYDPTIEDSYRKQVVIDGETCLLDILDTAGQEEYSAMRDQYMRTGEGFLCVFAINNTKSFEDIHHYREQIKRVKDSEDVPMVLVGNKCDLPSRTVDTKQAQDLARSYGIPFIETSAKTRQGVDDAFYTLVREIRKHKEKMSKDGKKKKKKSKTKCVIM
Description: as §1, §2, §3

T1 sequence (P01116 1-188 isoform P01116-2 G12D): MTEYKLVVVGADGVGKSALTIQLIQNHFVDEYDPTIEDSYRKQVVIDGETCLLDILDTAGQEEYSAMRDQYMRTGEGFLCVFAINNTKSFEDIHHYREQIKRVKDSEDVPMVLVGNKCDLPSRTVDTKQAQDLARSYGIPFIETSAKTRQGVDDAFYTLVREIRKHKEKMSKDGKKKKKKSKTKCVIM

Row | IC50 (KRAS G12D) [nM] | IC50 (KRAS WT) [nM] | IC50 (KRAS G12V) [nM] | IC50 (KRAS G12S) [nM] | Structure (SMILES)
1 | < 500 | < 500 | < 500 | < 500 | C=C1CN2CC(=C)CC2(COc2nc(N(CC)[C@@H]3CCN(C(=O)n4cnc(Cl)n4)[C@@H]3C)c3cc(C(F)(F)F)c(-c4ccc(F)c5sc(N)c(C#N)c45)c(F)c3n2)C1 [Compound 219, 2-amino-4-(4-(((2R,3R)-1-(3-chloro-1H-1,2,4-triazole-1-carbonyl)-2-methylpyrrolidin-3-yl)(ethyl)amino)-2-((2,6-dimethylenetetrahydro-1H-pyrrolizin-7a(5H)-yl)methoxy)-8-fluoro-6-(trifluoromethyl)quinazolin-7-yl)-7-fluorobenzo[b]thiophene-3-carbonitrile]
2 | < 500 | < 500 | < 500 | < 500 | CCN(c1nc(OC[C@@]23CCCN2C[C@H](F)C3)nc2c(F)c(-c3ccc(F)c4sc(N)c(C#N)c34)c(C3CC3)cc12)[C@@H]1CCN(C(=O)n2cc(C)nc2C)[C@@H]1C (atropisomer, axis not shown; (aS)) [Compound 190, (S)-2-amino-4-(6-cyclopropyl-4-(((2R,3R)-1-(2,4-dimethyl-1H-imidazole-1-carbonyl)-2-methylpyrrolidin-3-yl)(ethyl)amino)-8-fluoro-2-(((2R,7aS)-2-fluorotetrahydro-1H-pyrrolizin-7a(5H)-yl)methoxy)quinazolin-7-yl)-7-fluorobenzo[b]thiophene-3-carbonitrile]
3 | – | < 500 | < 500 | < 500 | CC1CC(N(C)c2nc(OC[C@@]34CCCN3C[C@H](F)C4)nc3c(F)c(-c4ccc(F)c5sc(N)c(C#N)c45)c(Cl)cc23)CCN1C(=O)n1ccnc1 (stereo partly drawn) [Compound 153, 4-(4-((1-(1H-imidazole-1-carbonyl)-2-methylpiperidin-4-yl)(methyl)amino)-6-chloro-8-fluoro-2-(((2R,7aS)-2-fluorotetrahydro-1H-pyrrolizin-7a(5H)-yl)methoxy)quinazolin-7-yl)-2-amino-7-fluorobenzo[b]thiophene-3-carbonitrile]
4 | < 500 | < 500 | < 500 | < 500 | Cc1ncn(C(=O)N2CC3CCCN(c4nc(OC[C@@]56CCCN5C[C@H](F)C6)nc5c(F)c(-c6ccc(F)c7sc(N)c(C#N)c67)c(Cl)cc45)C3C2)c1C (stereo partly drawn) [Compound 206, 2-amino-4-(6-chloro-4-(6-(4,5-dimethyl-1H-imidazole-1-carbonyl)octahydro-1H-pyrrolo[3,4-b]pyridin-1-yl)-8-fluoro-2-(((2R,7aS)-2-fluorotetrahydro-1H-pyrrolizin-7a(5H)-yl)methoxy)quinazolin-7-yl)-7-fluorobenzo[b]thiophene-3-carbonitrile]
5 | < 500 | < 500 | < 500 | < 500 | COCC1([C@H]2N(C(=O)n3cnc(C)c3)C[C@]23CCCCN(c2nc(OC[C@@]45CCCN4C[C@H](F)C5)nc4c(F)c(-c5ccc(F)c6sc(N)c(C#N)c56)c(Cl)cc24)C3)CC1 [Compound 203, 2-amino-4-(6-chloro-8-fluoro-2-(((2R,7aS)-2-fluorotetrahydro-1H-pyrrolizin-7a(5H)-yl)methoxy)-4-((1S,4R)-1-(1-(methoxymethyl)cyclopropyl)-2-(4-methyl-1H-imidazole-1-carbonyl)-2,6-diazaspiro[3.6]decan-6-yl)quinazolin-7-yl)-7-fluorobenzo[b]thiophene-3-carbonitrile]
6 | < 500 | < 500 | < 500 | < 500 | Cc1cn(C(=O)N2C[C@]3(CCCCN(c4nc(OC[C@@]56CCCN5C[C@H](F)C6)nc5c(F)c(-c6ccc(F)c7sc(N)c(C#N)c67)c(Cl)cc45)C3)[C@H]2C2(C)CC2)cn1 [Compound 207, 2-amino-4-(6-chloro-8-fluoro-2-(((2R,7aS)-2-fluorotetrahydro-1H-pyrrolizin-7a(5H)-yl)methoxy)-4-((1R,4R)-2-(4-methyl-1H-imidazole-1-carbonyl)-1-(1-methylcyclopropyl)-2,6-diazaspiro[3.6]decan-6-yl)quinazolin-7-yl)-7-fluorobenzo[b]thiophene-3-carbonitrile]
7 | < 500 | < 500 | < 500 | < 500 | Cc1ncn(C(=O)N2C[C@H]3[C@@H]2CCCN3c2nc(OC[C@]34CCCN3C[C@@H](F)C4)nc3c(F)c(-c4ccc(F)c5sc(N)c(C#N)c45)c(Cl)cc23)c1C [Compound 129, 2-amino-4-(6-chloro-4-((1S,6S)-7-(4,5-dimethyl-1H-imidazole-1-carbonyl)-2,7-diazabicyclo[4.2.0]octan-2-yl)-8-fluoro-2-(((2S,7aR)-2-fluorotetrahydro-1H-pyrrolizin-7a(5H)-yl)methoxy)quinazolin-7-yl)-7-fluorobenzo[b]thiophene-3-carbonitrile]
8 | < 500 | < 500 | < 500 | < 500 | CCN(c1nc(OC[C@@]23CCCN2C[C@H](F)C3)nc2c(F)c(-c3ccc(F)c4sc(N)c(C#N)c34)c(Cl)cc12)[C@@H]1CCN(C(=O)n2cnc3c2CCC3)[C@@H]1C [Compound 132, 2-amino-4-(6-chloro-4-(ethyl((2R,3R)-2-methyl-1-(1,4,5,6-tetrahydrocyclopenta[d]imidazole-1-carbonyl)pyrrolidin-3-yl)amino)-8-fluoro-2-(((2R,7aS)-2-fluorotetrahydro-1H-pyrrolizin-7a(5H)-yl)methoxy)quinazolin-7-yl)-7-fluorobenzo[b]thiophene-3-carbonitrile]
9 | < 500 | < 500 | < 500 | < 500 | CN(c1nc(OC[C@@]23CCCN2C[C@H](F)C3)nc2c(F)c(-c3ccc(F)c4sc(N)c(C#N)c34)c(Cl)cc12)C1CN(C(=O)n2ccnc2)CC1F (single isomer, unassigned) [Compound 191]
10 | < 500 | < 500 | < 500 | < 500 | CC1CC(N(C)c2nc(OC[C@@]34CCCN3C[C@H](F)C4)nc3c(F)c(-c4ccc(F)c5sc(N)c(C#N)c45)c(Cl)cc23)CN1C(=O)n1cnc(F)n1 (stereo partly drawn) [Compound 146, 2-amino-4-(6-chloro-8-fluoro-4-((1-(3-fluoro-1H-1,2,4-triazole-1-carbonyl)-5-methylpyrrolidin-3-yl)(methyl)amino)-2-(((2R,7aS)-2-fluorotetrahydro-1H-pyrrolizin-7a(5H)-yl)methoxy)quinazolin-7-yl)-7-fluorobenzo[b]thiophene-3-carbonitrile]
11 | < 500 | < 500 | < 500 | < 500 | Cc1cn(C(=O)N2CC[C@@H](N(C)c3nc(OC[C@@]45CCCN4C[C@H](F)C5)nc4c(F)c(-c5ccc(F)c6sc(N)c(C#N)c56)c(Cl)cc34)[C@H]2C)c(C)n1 [Compound 105, 2-amino-4-(6-chloro-4-(((2R,3R)-1-(2,4-dimethyl-1H-imidazole-1-carbonyl)-2-methylpyrrolidin-3-yl)(methyl)amino)-8-fluoro-2-(((2R,7aS)-2-fluorotetrahydro-1H-pyrrolizin-7a(5H)-yl)methoxy)quinazolin-7-yl)-7-fluorobenzo[b]thiophene-3-carbonitrile]
12 | < 500 | < 500 | < 500 | < 500 | CCN(c1nc(OC[C@@]23CCCN2C[C@H](F)C3)nc2c(F)c(-c3cccc4sc(N)c(C#N)c34)c(Cl)cc12)[C@@H]1CCN(C(=O)n2cc(C#N)nc2C)[C@@H]1C [Compound 113, 1-((2R,3R)-3-((7-(2-amino-3-cyanobenzo[b]thiophen-4-yl)-6-chloro-8-fluoro-2-(((2R,7aS)-2-fluorotetrahydro-1H-pyrrolizin-7a(5H)-yl)methoxy)quinazolin-4-yl)(ethyl)amino)-2-methylpyrrolidine-1-carbonyl)-2-methyl-1H-imidazole-4-carbonitrile]
